Patent US8188059B2, “Compounds and methods for modulating expression of GCGR” (Isis Pharmaceuticals, Inc., priority 2006, dated 2012)
e = 2'-O-(2-methoxyethyl) (MOE); d = 2'-deoxy (DNA)

How the values were obtained:
human SGLT2 = target: T1, human SGLT2 (Homo sapiens, UniProt P31639); conditions: cited from earlier work
T1 construct: host or cells: Xenopus oocytes (heterologous expression after injection)
T1 sequence (P31639 1-672): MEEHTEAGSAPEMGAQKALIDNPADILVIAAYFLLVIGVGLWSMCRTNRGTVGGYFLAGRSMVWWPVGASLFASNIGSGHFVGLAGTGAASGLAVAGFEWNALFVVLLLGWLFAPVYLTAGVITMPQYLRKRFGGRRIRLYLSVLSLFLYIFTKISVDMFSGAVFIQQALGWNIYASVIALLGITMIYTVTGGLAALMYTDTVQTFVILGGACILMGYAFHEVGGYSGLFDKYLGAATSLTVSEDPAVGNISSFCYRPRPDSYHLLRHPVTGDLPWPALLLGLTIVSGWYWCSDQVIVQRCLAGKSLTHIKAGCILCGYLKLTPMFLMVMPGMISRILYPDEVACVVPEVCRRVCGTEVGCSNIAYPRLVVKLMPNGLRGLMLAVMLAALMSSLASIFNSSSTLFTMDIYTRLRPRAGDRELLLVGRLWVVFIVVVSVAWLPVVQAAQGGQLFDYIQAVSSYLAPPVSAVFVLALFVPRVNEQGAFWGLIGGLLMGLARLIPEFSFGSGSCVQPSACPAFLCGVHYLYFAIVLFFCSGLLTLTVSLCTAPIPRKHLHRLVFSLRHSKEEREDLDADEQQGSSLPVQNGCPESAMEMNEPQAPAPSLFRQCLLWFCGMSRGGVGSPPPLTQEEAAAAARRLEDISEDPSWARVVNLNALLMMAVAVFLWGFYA

SGLT-2 mRNA [1] = experiment: SGLT-2 mRNA levels in kidney of ZDF rats, parent versus 12 nucleobase compound (Example 10); format: in vivo, rat
Experimental: In a next study, ZDF rats were dosed intraperitoneally twice per week with 1.5 mg/kg of either ISIS 257016 or ISIS 370717, or with saline at a similar dosing schedule. ISIS 370717 is a 12 nucleobase antisense compound targeted to SGLT-2 nucleic acid comprising the sequence […] […] All cytidine residues are 5-methylcytidines.
The date support that ISIS 257016 is a prodrug having a 12 nucleotide pharmacophore.

SGLT-2 mRNA [2] = experiment: SGLT-2 mRNA levels in kidney of normal rats after intrajejunal administration (Example 11); format: in vivo, rat; conditions: 100 mg/kg twice per week intrajejunal
mouse SGLT2 mRNA [3] = experiment: Mouse SGLT2 mRNA levels in kidney, wing, gap and length variations (Example 12, Table 61); format: in vivo; conditions: mice
Experimental: ISIS 370717 1-10-1 MOE gapmer was used as a template to make sequence related oligos with varying motifs. The antisense compounds were designed to target different regions of the mouse or rat SGLT2 nucleic acid, using published sequences (GenBank accession number U29881.1, incorporated herein as SEQ ID NO: 1575, and GenBank accession number AJ292928.1, incorporated herein as SEQ ID NO: 1576, respectively).
The antisense compounds were analyzed for their effect on mouse SGLT2 mRNA levels. Data are ranges taken from three experiments in which mice were dosed twice per week for three weeks with 2.5, 0.5 or 0.1 umol/kg of the above MOE gapmers given by intraperitoneal injection. Mice were sacrificed 48 hours following last administration and evaluated for SGLT2 levels in kidney. SGLT2 mRNA levels were determined by RT, real-time PCR as described by other examples herein. PCR results were normalized to an internal ISIS control.

rat SGLT2 mRNA [4] = experiment: Rat SGLT2 mRNA levels in kidney, 1-10-1 and 1-10-2 MOE gapmers, Sprague-Dawley rats (Example 13, Table 63); format: in vivo
Excerpt: 1-10-1 and 1-10-2 MOE gapmer antisense compounds, provided in Table 62, were designed to target different regions of the mouse or rat SGLT2 RNA. All short antisense compounds in Table 62 are chimeric oligonucleotides (“gapmers”) either 12 or 13 nucleotides in length, composed of a central “gap” segment consisting of ten 2′-deoxynucleotides, which are flanked on the 5′ side by a one-nucleoside “wing” and on the 3′ side by a two or one-nucleotide “wing”. […] All cytidine residues are 5-methylcytidines.
The short antisense compounds were analyzed for their effect on rat SGLT2 mRNA levels. Data are ranges taken from three experiments in which Male Sprague-Dawley rats (170-200 g) were dosed twice per week for three weeks with 450, 150 or 50 nmol/kg of either a 1-10-1 or 1-10-2 MOE gapmer given by intraperitoneal injection. Rats were sacrificed 48 hours following last administration and evaluated for SGLT2 mRNA levels in kidney. Target levels were determined by RT, real-time PCR as described by other examples herein. PCR results were normalized to an internal ISIS control.

mouse SGLT2 mRNA [5] = experiment: Mouse SGLT2 mRNA levels in kidney, 1-10-1 MOE gapmers, Balb/c mice (Example 14, Table 65); format: in vivo
Experimental: The short antisense compounds were analyzed for their effect on mouse SGLT2 mRNA levels. Data was taken from three experiments in which Male 6-week old Balb/c mice were dosed twice per week for two weeks with 450, 150, or 50 nmol/kg of one of the above 1-10-1 MOE gapmers given by intraperitoneal injection. Mice were sacrificed 48 hours following last administration and evaluated for SGLT2 mRNA levels in kidney. Target levels were determined by RT, real-time PCR as described by other examples herein. PCR results were normalized to an internal ISIS control.

rat SGLT2 mRNA [6] = experiment: Rat SGLT2 mRNA levels in kidney, 1-10-1 gapmers at 250 nmol/kg, Sprague-Dawley rats (Example 14, Table 66); format: in vivo; conditions: 250 nmol/kg i.p. twice per week for three weeks; Sprague-Dawley rats; kidney
Experimental: The effect of the above 1-10-1gapmers (see Table 64 above) on rat SGLT2 mRNA levels. Data are taken from four experiments in which male Sprague-Dawley rats (170-200 g) were dosed twice per week for three weeks with 250 nmol/kg given by intraperitoneal injection. Rats were sacrificed 48 hours following last administration and evaluated for SGLT2 mRNA levels in kidney. Target levels were determined by RT, real-time PCR as described by other examples herein. PCR results were normalized to an internal ISIS control.

O=C(CCc1ccc(O)cc1)c1c(O)cc(O)cc1O[C@@H]1O[C@H](CO)[C@@H](O)[C@H](O)[C@H]1O [phlorizin]
transport activity (human SGLT2; You et al., 1995): suppressed

CO[C@H]1O[C@H](CO)[C@@H](O)[C@H](O)[C@H]1O [α-MeG1c, α-methyl-D-glucopyranoside]
Km (human SGLT2; sodium-dependent transport (Kanai et al., 1994; You et al., 1995)): 1600 µM

ISIS 370717: SGLT2; TAGCCACCAACT 1-10-1 MOE gapmer, phosphorothioate (sugars from the 5' end e1 d10 e1, all phosphorothioate, methylation of C not given here)
pharmacological activity (SGLT-2 mRNA [1]; ZDF rats, 1.5 mg/kg i.p. twice per week, five weeks): similar | onset of action (SGLT-2 mRNA [1]; compared with ISIS 257016): faster onset of action | inhibition of SGLT2 expression in kidney (SGLT-2 mRNA [1]; day two after a single dose of 2.8 umoles/kg): ~80% | SGLT-2 mRNA reduced over the controls (SGLT-2 mRNA [2]): more than 80% | % change in SGLT2 expression relative to saline (mouse SGLT2 mRNA [3]; 0.1 umol/kg i.p. twice per week for three weeks): −55% | % change in SGLT2 expression relative to saline (mouse SGLT2 mRNA [3]; 0.5 umol/kg i.p. twice per week for three weeks): −70% | % change in SGLT2 expression relative to saline (rat SGLT2 mRNA [4]; 50 nmol/kg i.p. twice per week for three weeks): −55% | % change in SGLT2 expression relative to saline (rat SGLT2 mRNA [4]; 150 nmol/kg i.p. twice per week for three weeks): −70% | % change in SGLT2 expression relative to saline (rat SGLT2 mRNA [4]; 450 nmol/kg i.p. twice per week for three weeks): −70% | % change in SGLT2 expression relative to saline (mouse SGLT2 mRNA [5]; 50 nmol/kg i.p. twice per week for two weeks): −47.5% | % change in SGLT2 expression relative to saline (mouse SGLT2 mRNA [5]; 150 nmol/kg i.p. twice per week for two weeks): −55% | % change in SGLT2 expression relative to saline (mouse SGLT2 mRNA [5]; 450 nmol/kg i.p. twice per week for two weeks): −65% | % change in SGLT2 expression relative to saline (rat SGLT2 mRNA [6]): −70%
